This note sets out measurements from patent US4038033A, “Selenium labelled compounds in the saturation analysis of cyclic nucleotide” (The Radiochemical Centre, Limited, priority 1975, dated 1977).

Test [1] concerns natural binding protein extracted from bovine muscle. Put plainly: Saturation analysis of cyclic AMP: binding of 75Se-labelled cyclic AMP derivative to binding protein and displacement by cyclic AMP. To be noted: for Percentage of 75Se-labelled cyclic AMP bound: 3 picomoles ligand, pH 7.5, 2°-4° C., 3 hours; for binding to natural binding protein extracted from bovine muscle / displacement with 3',5'-cyclic AMP from natural binding protein: qualitative. The procedure:
Standard solutions of cyclic AMP containing 1, 2, 4, 8 and 16 picomoles in 50mmol tris/4mmol EDTA buffer, pH 7.5 (50μl) were pipetted into assay tubes maintained at 2°-4° C. Buffer was also added to `total` `blank` and `zero dose` tubes (150, 150 and 50μl respectively),also at 2-4' C. To each tube was added 8-methylseleno-cyclic AMP-^75 Se (3 picomoles; specific activity ca 22Ci/mmol) in 50μl of buffer.
Binding protein (ex bovine muscle) in 100μl of buffer was then added to all tubes except the `blanks`. The tubes were vortex mixed for approximately 5 seconds and then incubated at 2°-4° C. for 3 hours. A suspension of charcoal in water (100μl) was added to all tubes except the `totals` and after vortex mixing for approximately 5 seconds the tubes were immediately centrifuged to sediment the charcoal. A 200μl sample was removed from the supernate of each tube and from the `totals` and counted in a gamma counter.
(§1) Results are expressed in terms of […]

Test [2] has as its system Antiserum (raised against cyclic GMP-2'-succinyl-BSA). The experiment in a line: Saturation analysis of cyclic GMP: binding of 8-methylseleno-cyclic GMP-75Se to antiserum and displacement by cyclic GMP. As to conditions: for Percentage of 75Se-labelled cyclic GMP bound: 0.25 picomoles ligand, pH 7.5, 2°-4° C., 3 hours. As to the method: Standard solutions of cyclic GMP containing 0.25, 0.5, 1.0, 2, 4, 8 and 16,000 picomoles in 100μl of 50mmol tris/4mmol EDTA buffer, pH 7.5, were pipetted into assay tubes maintained at 2°-4° C.; the concentration of 16,000 picomoles/100μl was for determination of `non-specific binding`. 100μl of buffer was also added to a tube for determination of `zero dose` counts. To each tube was added 8-methylseleno-cyclic GMP-^75 Se (0.25 picomoles, specific activity ca 24Ci/mmol) in 50μl of buffer. Antiserum (raised against cyclic GMP-2'-succinyl-BSA) in 50μl of buffer was then added to all tubes. The tubes were briefly vortex mixed and incubated at 2°-4° C. for 3 hours. 1ml of aqueous ammonium sulphate solution (60% saturated) at 2°-4° C. was added to all tubes which, after mixing, were kept at 2°-4° C. for 5 minutes and then centrifuged. After decantation of the supernate and removal of adhering liquid the precipitates were counted in a gamma counter. 0.25 picomoles of 8-methylseleno-cyclic GMP-^75 Se (specific activity ca 24Ci/mmol) in 50μl of buffer was also counted to give `total` counts.
as §1

In a further test the test system is binding protein. Put plainly: Competitive inhibition of the binding of tritiated cyclic AMP to the binding protein. Also on record: species or system bovine. To be noted: for % 3H-cyclic AMP bound: tritiated cyclic AMP 0.9pmol, zero-dose binding 54.5; for Cyclic AMP equivalent: unlabelled cyclic AMP giving equal reduction in binding. As to the method: Because of the low activity of the 6-methylselenopurine riboside 3',5'-cyclic monophosphate-^75 Se its binding properties were investigated by using the selenium-75 compound as a competitive inhibitor of the binding of tritiated cyclic AMP to the binding protein.
6-methylselenopurine riboside 3',5'-cyclic monophosphate-^75 Se (specific activity 6.65m Ci/mmol) was made up in tris/EDTA buffer at concentrations of 1,156 pmoles, 105pmoles and 9.6pmoles per 50μl aliquot. In the normal assay 100μl of binding protein is incubated with tritiated cyclic AMP (0.9pmol) and unlabelled cyclic AMP (standards and unknowns). Bound and free labelled cyclic AMP are separated by absorption of free cyclic AMP on charcoal and bound activity is determined by counting a sample of the supernate. To determine the potency of the selenium analogue the zero-dose binding was first determined, ie. the percentage of tritiated cylic AMP bound in the absence of unlabelled cyclic AMP or selenium analogue. This was then compared with the binding of tritiated cylic AMP in the presence of 4 different doses of selenium analogue. From the results obtained it was possible to calculate the amounts of unlabelled cyclic AMP which would give a reduction in binding equal to that caused by the selenium analogue.

The test system of test [3] is antibodies raised against these cyclic nucleotides (3',5'-cyclic AMP and 3',5'-cyclic GMP). The experiment in a line: Binding of selenocysteine conjugates to antibodies raised against the cyclic nucleotides. As to conditions: qualitative.
Test [4] relates to Antiserum (raised against cyclic GMP-2'-succinyl-BSA). The experiment in a line: Saturation analysis of cyclic GMP: binding of Se-methyl-L-selenocysteine-75Se conjugate of 2'-O-succinyl cyclic GMP to antiserum and displacement by cyclic GMP. To be noted: 0.59 picomoles ligand, pH 7.5, 2°-4° C., 3 hours. The procedure:
Standard solutions of cyclic GMP containing 5, 10, 20, 40, 80 and 16,000 picomoles in 100μl of 50mmol tris/4mmol EDTA buffer, pH 7.5 were pipetted into assay tubes maintained at 2°-4° C.; the concentration of 16,000 picomoles/100μl was for determination of `non-specific binding`. 100μl of buffer was also added to a tube for determination of `zero dose` counts. To each tube was added Se-methyl-L-selenocysteine-^75 Se conjugate of 2' -O-succinyl cyclic GMP (0.59 picomoles; specific activity ca 16.1Ci/mmol) in 50μl of buffer. Antiserum (raised against cyclic GMP-2'-succinyl-BSA) in 50μl of buffer was then added to all tubes. The tubes were briefly vortex mixed and incubated at 2°-4° C. for 3 hours. 1ml of aqueous ammonium sulphate solution (60% saturated) at 2°-4° C. was added to all tubes which, after mixing, were kept at 2°-4° C. for 5 minutes and then centrifuged.
After decantation of the supernate and removal of adhering liquid the precipitates were counted in a gamma counter. 0.59 picomoles of the Se-methyl-L-selenocysteine-^75 Se conjugate of 2' -O-succinyl cyclic GMP in 50μl of buffer was also counted to give `total` counts.
as §1

In the case of `C[75Se]c1nc2c(N)ncnc2n1[C@@H]1O[C@@H]2COP(=O)(O)O[C@H]2[C@H]1O` [I, 8-methylselenoadenosine 3', 5'-cyclic monophosphate-^75 Se], the “Percentage of 75Se-labelled cyclic AMP bound” value in test [1] (dose of cyclic AMP 0 picomoles) stood at 38.8%; in test [1] (dose of cyclic AMP 1 picomole) it was 29.7%; in test [1] (dose of cyclic AMP 2 picomoles), 26.7%; in test [1] (dose of cyclic AMP 4 picomoles), 21.4%; in test [1] (dose of cyclic AMP 8 picomoles), 16.6%; in test [1] (dose of cyclic AMP 16 picomoles), 10.6%. Further, in test [1], the “binding to natural binding protein extracted from bovine muscle” value is “shown to bind”. Also, the “displacement with 3',5'-cyclic AMP from natural binding protein” value in test [1] is given as “capable of displacement”.
With `C[75Se]c1nc2c(=O)[nH]c(N)nc2n1[C@@H]1O[C@@H]2COP(=O)(O)O[C@H]2[C@H]1O` [II, 8-methylselenoguanosine 3',5'-cyclic monophosphate-^75 Se], the “Percentage of 75Se-labelled cyclic GMP bound” value in test [2] (dose of cyclic GMP 0 picomoles) was 45.3%; in test [2] (dose of cyclic GMP 0.25 picomoles), 33.7%; in test [2] (dose of cyclic GMP 0.5 picomoles) it was 27.8%; in test [2] (dose of cyclic GMP 1.0 picomoles), 22.3%; in test [2] (dose of cyclic GMP 2.0 picomoles), 14.0%; in test [2] (dose of cyclic GMP 4.0 picomoles), 9.3%. The “Percentage of 75Se-labelled cyclic GMP bound” value in test [2] (dose of cyclic GMP 8.0 picomoles) came out at 6.5%. Further, the “binding to an antibody raised against cyclic GMP-2'-O-succinyl-BSA” value in test [2] (qualitative) is given as “shown to bind”.
With `C[75Se]c1ncnc2c1ncn2[C@@H]1O[C@@H]2COP(=O)(O)O[C@H]2[C@H]1O` [III, 6methylselenopurineriboside-3',5'-cyclic monophosphate-^75 Se], in test [1], the “binding to natural binding protein extracted from bovine muscle” value was “shown to bind” and the “displacement with 3',5'-cyclic AMP from natural binding protein” value was “capable of displacement”. Further, in the test with binding protein (9.6pmoles of Se analogue), the “cyclic AMP causing as much displacement of tritiated cyclic AMP” value is 12.2 pmol. Besides, in the test with binding protein (Se analogue 9.6 pmoles/50μl), the “% 3H-cyclic AMP bound” value is recorded as 5.06% and the “Cyclic AMP equivalent” value came out at 12.2 pmoles/50μl. Also, in the test on binding protein (Se analogue 105 pmoles/50μl), the “% 3H-cyclic AMP bound” value stood at 0.96% and the “Cyclic AMP equivalent” value is recorded as 69.7 pmoles/50μl. Moreover, in the test on binding protein (Se analogue 1,156 pmoles/50μl), the “% 3H-cyclic AMP bound” value was determined as 0.42% and the “Cyclic AMP equivalent” value is given as 161 pmoles/50μl. Besides, the “binding power compared with cyclic AMP” value in the test with binding protein (at the concentration employed (9.6pmoles)) was “very similar binding powers”.
Consider `C[75Se]C[C@H](NC(=O)CCC(=O)O[C@@H]1[C@@H]2OP(=O)(O)OC[C@H]2O[C@H]1n1cnc2c(N)ncnc21)C(=O)O` [IV], for which the “binding to antibodies raised against these cyclic nucleotides” value in test [3] was “bind strongly”.
For the compound `C[75Se]C[C@H](NC(=O)CCC(=O)O[C@@H]1[C@@H]2OP(=O)(O)OC[C@H]2O[C@H]1n1cnc2c(=O)[nH]c(N)nc21)C(=O)O` [V], the “Percentage of 75Se-labelled cyclic GMP bound” value in test [4] (dose of cyclic GMP 0 picomoles) came out at 24.5%; in test [4] (dose of cyclic GMP 5 picomoles), 17.3%; in test [4] (dose of cyclic GMP 10 picomoles), 16.7%; in test [4] (dose of cyclic GMP 20 picomoles), 11.8%; in test [4] (dose of cyclic GMP 40 picomoles), 8.3%; in test [4] (dose of cyclic GMP 80 picomoles) it was 6.1%. Besides, in test [3], the “binding to antibodies raised against these cyclic nucleotides” value is “bind strongly”.
